As a reminder, the pIC50 is the IC50 on a negative log10 scale, so that one unit is a factor of ten.

These results are taken from ChEMBL document CHEMBL5726842, “Bicyclic azaheterocyclobenzylamines as PI3K inhibitors” (2019).

For this assay, the target named is T1, Phosphatidylinositol 4,5-bisphosphate 3-kinase catalytic subunit delta isoform (Homo sapiens, UniProt O00329).
T1 sequence (O00329 whole entry): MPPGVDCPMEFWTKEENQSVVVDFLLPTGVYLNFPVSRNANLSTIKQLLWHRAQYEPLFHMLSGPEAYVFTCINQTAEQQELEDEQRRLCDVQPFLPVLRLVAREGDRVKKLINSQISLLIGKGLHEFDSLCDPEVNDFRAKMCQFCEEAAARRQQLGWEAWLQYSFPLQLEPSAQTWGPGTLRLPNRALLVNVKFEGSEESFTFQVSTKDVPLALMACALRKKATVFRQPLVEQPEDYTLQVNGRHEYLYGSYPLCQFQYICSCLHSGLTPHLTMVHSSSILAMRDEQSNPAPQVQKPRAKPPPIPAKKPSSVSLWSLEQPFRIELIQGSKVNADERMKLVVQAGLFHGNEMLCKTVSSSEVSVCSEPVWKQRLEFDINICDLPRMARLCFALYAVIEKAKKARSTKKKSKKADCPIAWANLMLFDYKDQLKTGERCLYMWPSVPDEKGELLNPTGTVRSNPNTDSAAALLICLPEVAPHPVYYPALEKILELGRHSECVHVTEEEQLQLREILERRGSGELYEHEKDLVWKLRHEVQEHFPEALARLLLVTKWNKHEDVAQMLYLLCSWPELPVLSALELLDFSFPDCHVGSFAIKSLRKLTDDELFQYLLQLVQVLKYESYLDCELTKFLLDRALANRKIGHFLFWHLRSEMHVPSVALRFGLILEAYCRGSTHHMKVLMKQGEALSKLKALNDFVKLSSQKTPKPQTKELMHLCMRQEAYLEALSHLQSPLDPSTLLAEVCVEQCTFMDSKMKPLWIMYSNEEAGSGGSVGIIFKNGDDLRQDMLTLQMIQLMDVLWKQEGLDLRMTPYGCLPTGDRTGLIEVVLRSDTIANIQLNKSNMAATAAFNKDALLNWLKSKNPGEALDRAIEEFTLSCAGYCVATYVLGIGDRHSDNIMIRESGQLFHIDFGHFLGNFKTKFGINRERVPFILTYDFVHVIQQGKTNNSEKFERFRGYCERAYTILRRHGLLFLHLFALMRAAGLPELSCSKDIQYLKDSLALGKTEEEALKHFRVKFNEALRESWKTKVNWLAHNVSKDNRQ
Put plainly: PI3Kdelta Scintillation Proximity Assay: [γ-33P]ATP (10mCi/mL) was purchased from Perkin-Elmer (Waltham, Mass.). Lipid kinase substrate, D-myo-Phosphatidylinositol 4,5-bisphosphate (PtdIns(4,5)P2)D (+)-sn-1,2-di-O-octanoylglyceryl, 3-O-phospho linked (PIP2), CAS 204858-53-7, was purchased from Echelon Biosciences (Salt Lake City, Utah). PI3Kδ (p110δ/p85α) was purchased from Millipore (Bedford, Mass.). ATP, MgCl2, DTT, EDTA, MOPS and CHAPS were purchased from Sigma-Aldrich (St. Louis, Mo.). Wheat Germ Agglutinin (WGA) YSi SPA Scintillation Beads was purchased from GE healthcare life sciences (Piscataway, N.J.).The kinase reaction was conducted in polystyrene 384-well matrix white plate from Thermo Fisher Scientific in a final volume of 25 μL. Inhibitors were first diluted serially in DMSO and added to the plate wells before the addition of other reaction components. The final concentration of DMSO in the assay was 0.5%. The PI3K assays were carried out at room temperature in 20 mM MOPS, pH 6.7, 10 mM MgCl2, 5 mM DTT and CHAPS 0.03%.Reactions were initiated by the addition of ATP, the final reaction mixture consisted of 20 μM PIP2, 20 μM ATP, 0.2 μCi [γ-33P] ATP, 4 nM PI3Kδ. Reactions were incubated for 210 min and terminated by the addition of 40 μL SPA beads suspended in quench buffer: 150 mM potassium phosphate pH 8.0, 20% glycerol. 25 mM EDTA, 400 μM ATP. […]. For orientation: SPA uses beads or plates that emit light when radiolabelled molecules are held near them.

pIC50: −log10 of the molar value.

Turning to `Cc1nn(C(C)c2cc(Cl)c(F)c3c2O[C@H](C)CN(C2CC(C(=O)O)C2)C3)c2ncnc(N)c12` (stereo partly specified), the pIC50 is more than 7.00.
